Values after ≈ are worked out from the molar mass of the structure shown.
Assays:
[1] = tested on: CMV AD169^IE2-YFP; assay: Anti-CMV activity (IC50) of NAPA compounds, AD169 IE2-YFP reporter virus high-content assay in fibroblasts; type: cell-based, Human cytomegalovirus; details: Human betaherpesvirus 5, AD169, Fibroblast
Description: To identify CMV inhibitors, a high-content screening (HCS) early-stage-specific reporter assay using a CMV AD169 yellow-fluorescent protein (YFP) expressing virus (AD169^IE2-YFP) (Gardner et al., Antiviral Res., 113:49-61 (2015)) was developed to screen >112,000 compounds to identify potent inhibitors (IC50<10 μM) of cytomegalovirus having a minimal mammalian cytotoxicity (CC50) of preferably ≥100 μM. As a result, we have identified, isolated, and characterized a novel series of N-arylpyrimidinamines (NAPAs) that inhibit CMV infection. […] Further, the NAPA compounds are broadly effective at inhibiting virus infection of diverse strains and cell types.
The CMV IE1 and IE2 gene products are translated within 3-6 hours post infection (hpi) and function to stimulate viral promoters to initiate transcription of early and late viral genes (Cherrington et al., J. Virol., 63:1435-40 (1989); Meier et al., J. Virol., 71:1246-1255 (1997)). The CMV AD169 variant that expresses a viral protein chimera consisting of IE2-YFP (AD1691E2/YFP) was utilized to quantify virus infection in a high-throughput screen by a robust fluorescent signal localized exclusively to the nucleus (8-24 hpi) (Gardner et al., supra (2015); Cohen et al., Viruses, 8 (10): 295 (2016); Cohen et al., J. Virol., 90:10715-10727 (2016)). Using the AD1691E2-YFP reporter virus assay, a collection of the compound libraries (>112,000 compounds) was screened for inhibitors of the early stages of CMV replication using a confocal fluorescence microscopic plate reader (BioTek Cytation3). Infection was calculated as a percentage of nuclei containing YFP and cycloheximide (8 μM) was used as a positive control. The Z′ factor for the optimized assay was >0.5 which was sufficient to initiate screening.
We evaluated 300 primary hits using an assay funnel designed to prioritize compounds based on antiviral activity, specificity, and drug-like properties. This identified two candidates for hit-to-lead optimization that were not Pan Assay Interference compounds (PAINS) (Baell et al., J. Med. Chem., 53:2719-40 (2010); Capuzzi et al., J. Chem. Inf. Model 57:417-427 (2017); Dahlin et al., Assay Drug Dev. Technol., 14:168-174 (2016)). […] The NAPA series was chosen as the primary hit-to-lead series due to its synthetic accessibility and the >2-log range in potency observed in the preliminary SAR that provides a clear pathway to improving antiviral activity and drug-like properties.

[2] = Cytotoxicity (CC50) against Hela cells for 3 d; type: cell-based; details: human
[3] = Murine liver microsome stability; type: in vitro ADME; details: % remaining after 30 min at 37° C. in the presence of NADPH
[4] = target: CYP3A4 (Homo sapiens, UniProt P08684); assay: CYP3A4 inhibition at 10 μM; type: in vitro ADME; details: % inhibition of CYP3A4 at 10 μM
CYP3A4, sequence (P08684 whole entry, species assumed): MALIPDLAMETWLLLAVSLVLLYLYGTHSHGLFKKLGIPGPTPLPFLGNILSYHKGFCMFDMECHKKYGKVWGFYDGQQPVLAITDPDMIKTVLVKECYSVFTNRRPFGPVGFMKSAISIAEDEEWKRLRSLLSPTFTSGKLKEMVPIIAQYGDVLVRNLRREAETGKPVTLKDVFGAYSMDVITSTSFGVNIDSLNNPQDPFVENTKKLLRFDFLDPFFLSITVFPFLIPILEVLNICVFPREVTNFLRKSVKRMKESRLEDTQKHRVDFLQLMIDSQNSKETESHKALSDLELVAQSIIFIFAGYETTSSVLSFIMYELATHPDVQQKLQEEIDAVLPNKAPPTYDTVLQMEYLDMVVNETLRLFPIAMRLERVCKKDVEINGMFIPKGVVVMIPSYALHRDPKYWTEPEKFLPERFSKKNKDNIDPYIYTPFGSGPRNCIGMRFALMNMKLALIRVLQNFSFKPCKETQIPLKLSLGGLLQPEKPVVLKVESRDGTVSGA

[5] = Maximum solubility in water by nephlometry; type: physicochemical; details: Maximum solubility in water determined by nephlometry; for solubility kinetic: kinetic from dmso stock
[6] = tested on: HCMV strain AD169^R; assay: CMV infection (neutralization) assay, GFP/IE1 readout 24 hpi, AD169^R; type: cell-based, Human cytomegalovirus
Description: (§1) Fibroblasts and ARPE-19 cells (10^4) were plated in 96-well plates (Greiner, Monroe, NC). The following day the cells were pretreated for 1 hour at 37° C. with increasing concentrations of the respective novel NAPA compounds described herein or DMSO in triplicate prior to infection with the respective viruses. At 18 hours post infection (hpi) cells were stained using a rabbit anti-IE1 antibody followed by an anti-rabbit Alexa 647 and measured using a Celigo Cytometer (Parsons et al., Antiviral Res., 193:105124 (2021); Stein et al., Nat. Commun., 10:2699 (2019)). Using the DMSO treated cells as 100% infection, the percent infection of the NAPA compound-treated cells was determined. The half maximal inhibitory (IC50) values were calculated using Prism9's nonlinear fit [inhibitor]-vs-response (four parameters) analysis of these averages and extrapolation to the concentration that would produce 50% infection relative to DMSO treatment.
(§2) To further evaluate the inhibitory properties of MBXC-4302 against CMV, we utilized the AD169 CMV virus strain containing the UL131-UL128 open reading frame of the HCMV strain TR and expressing EGFP (AD169^R) (Wang D. and Shenk T., Proc. Nat. Acad. Sci., USA, 102:18153-18158 (2005)) and TB40/E infection of human fibroblasts (NHDF) and ARPE-19 epithelial cells in the presence of increasing concentration of compound (FIG. 2A-D). Infection was analyzed 24 hours post infection (hpi) by measuring GFP fluorescence encoded by AD169^R or using an anti-IE1 antibody for staining TB40/E infected cells.
NAPA variants with modified groups were evaluated for inhibition of CMV infection in fibroblasts. AD169^R infected fibroblasts were treated with NAPA compounds MBX-4992, MBXC-4325, MBXC-4330, and MBXC-4336 (0-50 μM) and analyzed for infection at 24 hpi (FIG. 6A-D). The infected cells were probed for IE1 as an indication of virus infection.

[7] = tested on: HCMV strain TB40/E; assay: CMV infection (neutralization) assay, IE1 immunostain 24 hpi, TB40/E; type: cell-based, Human cytomegalovirus
Description: as §1, with “The half maximal inhibitory (IC50) values were calculated using Prism9's nonlinear fit [inhibitor]-vs-response (four parameters) analysis of these averages and extrapolation to the concentration that would produce 50% infection relative to DMSO treatment.” left out
as §2

[8] = tested on: AD169^R (IE1 expression); assay: Western blot (immunoblot) of IE1 expression in AD169^R-infected cells; type: cell-based, Human cytomegalovirus; details: NHDF cells, 24 hpi; MBX-4992 1-10 μM, ganciclovir 5 μM, convallotoxin 0.01 μM
Description: The molecular weight markers and respective proteins are indicated.
FIGS. 12A and B are Western Blot assays showing that MBXC-4336 limits expression of IE1 in fibroblasts and epithelial cells. Total cell lysates from AD169^R-infected (MOI 0.2) NHDF (A) and ARPE-19 (B) cells pre-treated with DMSO, MBX-4336 (0, 1, 5, 10, or 20 μM), or heparin (50 μg/mL) collected at 48 hpi were subjected to Western blot analysis using a rabbit anti-IE-1 antibody (lanes 1-7) and an anti-GAPDH antibody (lanes 8-14) as a loading control. The molecular weight markers and respective proteins are indicated.
Total cell lysates from virus infected NHDF cells treated with compounds were created through SDS-lysis (10^4/100 uL of 1% SDS) of at least three rounds of heating at 95° C. for 3 min and vigorous agitation. The total cell lysates were resolved using an SDS-polyacrylamide gel (12.5%), transferred to a PVDF membrane using a semi-dry apparatus. The membrane was then incubated with 1% BSA/PBS for 1 hr at room temperature followed by incubation with anti-IE1 and anti-GAPDH. Finally, the respective secondary antibody conjugated with HRP was incubated with membrane followed by detection using ECL reagents (Millipore).
Next, inhibition of the expression of IE1 in AD169^R-infected cells treated with MBX-4992 was examined by immunoblot analysis (FIG. 4E). […] Collectively, these findings further indicate that MBX-4992 effectively prevents the expression of the immediate-early genes during a CMV infection.

Row | SMILES | IC50 [1] | CC50 at 3 d [2] | MLMS [3] | CYP [4] | solubility kinetic [5] | IC50 ([6]; Human betaherpesvirus 5, AD169, ARPE-19) | IC50 ([6]; Human betaherpesvirus 5, AD169, NHDF) | IC50 ([7]; Human betaherpesvirus 5, ARPE-19) | IC50 ([7]; Human betaherpesvirus 5, NHDF) | IE1 expression by immunoblot [8] | Sol [5]
1 | Cc1ccc(Nc2nc(C)cc(Nc3ccc(NS(=O)(=O)c4ccccc4)cc3)n2)cc1 [MBXC-4301] | 24 µM | 11 µM | – | – | – | – | – | – | – | – | –
2 | Cc1cc(Nc2ccccc2)nc(Nc2ccc(NC(=O)c3ccc(Cl)cc3)cc2)n1 [MBXC-4303] | 20 µM | 7 µM | – | – | – | – | – | – | – | – | –
3 | Cc1ccc(Nc2cc(C)nc(Nc3ccc(NC(=O)c4ccco4)cc3)n2)cc1 [MBXC-4304] | 0.48 µM | 5.8 µM | 63% | 16% | – | – | – | – | – | – | –
4 | Cc1nc(Nc2ccc(NC(=O)c3ccco3)cc2)cc(-n2cccn2)n1 [MBXC-4302] | 3.2 µM | > 100 µM | 62% | <10% | 12.5 µM (≈ 4.5 µg/mL) | 5.8 µM | 3 µM | ~5.3 µM | ~5.3 µM | – | –
5 | Cc1nc(Nc2ccc(NC(=O)c3ccco3)cc2)cc(N2CCCCC2)n1 [MBXC-4295] | 0.46 µM | 54 µM | 36% | <10% | 50 µM (≈ 18.9 µg/mL) | – | – | – | – | – | –
6 | C[C@@H]1O[C@@H](O[C@H]2CC[C@]3(C=O)[C@H]4CC[C@]5(C)[C@@H](C6=CC(=O)OC6)CC[C@]5(O)[C@@H]4CC[C@]3(O)C2)[C@H](O)[C@H](O)[C@H]1O [convallatoxin, reference compound] | – | – | – | – | – | – | – | – | – | prevented infection | –
7 | CCNc1cc(Nc2ccc(NC(=O)c3ccco3)cc2)nc(C)n1 [MBXC-4298] | 3.7 µM | 29 µM | 64% | 50% | 200 µM (≈ 67.5 µg/mL) | – | – | – | – | – | –
8 | Cc1ccc(Nc2nc(C)cc(Nc3ccc(NC(=O)c4ccco4)cc3)n2)cc1 [MBXC-4299] | 0.32 µM | 5.5 µM | 68% | < 10% | – | – | – | – | – | – | –
9 | Cc1ccc(Nc2nc(C)cc(Nc3ccc(NC(=O)Nc4cccc(Cl)c4)cc3)n2)cc1 [MBXC-4300] | 3.8 µM | 2.7 µM | N/A 60% | N/A 10% | – | – | – | – | – | – | N/A 3.1 μM
10 | Cc1nc(Nc2ccc(NC(=O)c3cccs3)cc2)cc(N(C)C)n1 [MBXC-4294] | > 40 µM | 57 µM | – | – | – | – | – | – | – | – | –
11 | Cc1ccc(Nc2cc(Nc3ccc(NC(=O)c4ccco4)cc3)nc(C)n2)cc1 [MBXC-4297] | 0.37 µM | 21 µM | 44% | <10% | 25 µM (≈ 9.99 µg/mL) | – | – | – | – | – | –
12 | Cc1nc(Nc2ccc(NC(=O)c3ccco3)cc2)cc(N(C)C)n1 [MBX-4991] | 2.3 µM | > 100 µM | 65% | 18% | > 200 µM | – | – | – | – | – | –
